Legend:
[1] = biological target: T1, RpfC^FL (Xanthomonas campestris pv. campestris, UniProt P0C0F7); test: Dose-response of DSF on RpfC autokinase activity; format: biochemical
T1 construct: His6 (C); made in house; host or cells: E. coli BL21(DE3), pET30a
Method: (§1) in vitro phosphorylation assay was conducted as described in our previous study. For autophosphoylation, RpfC liposomes or IMV were incubated with 100 μM ATP containing 10 μCi [γ-^32P]ATP (PerkinElmer, USA) in autophosphorylation buffer (50 mM Tris-HCl, pH 7.8, 2 mM DTT, 25 mM NaCl, 25 mM KCl, 5 mM MgCl2) for indicated time (28°C). If necessary, DSF was added into the mixture 20 min before addition of ATP. The reaction was stopped with 6 × SDS-PAGE loading buffer. The phosphorylated proteins were separated by 12% SDS-PAGE. After SDS-PAGE electrophoresis, gels were separated from back glass plate and placed in a Ziploc bag and exposed to a phosphor screen for 1 hour. The screen was scanned with a PhosphorImage system (Amersham Biosciences, USA) at […]. If necessary, signal intensity was measured by Quantity One software (Bio-Rad).

[2] = biological target: GST (Schistosoma japonicum, UniProt P08515); test: Circular dichroism of GST; conditions: GST 6 μM
[3] = test system: cell-cell communication; set-up: method as in PMID 14731288; conditions: cited from earlier work
[4] = biological target: T2, RpfC^Q22A liposome (Xanthomonas campestris pv. campestris, UniProt P0C0F7, Q22A); test: MST binding, RpfC^Q22A liposome
T2 construct: His6 (C); made in house; host or cells: E. coli BL21(DE3), pET30a
Method: (§2) Binding reactions of RpfC to DSF was measured by microscale thermophoresis in a Monolith NT.Label Free (Nano Temper Technologies GMBH, Germany) instrument which detects changes in size, charge and conformation induced by binding. RpfC liposomes were collected with centrifugation of 200,000 g for 40 min and resuspended in MST buffer (50 mM Tris-HCl pH 7.8, 150 mM NaCl, 10 mM MgCl2, 0.05% Tween-20) to an approximate concentration of 0.1 μM. A range of concentration of DSF (range from 0.06 μM to 2 mM) in assay buffer (50 mM Tris-HCl pH 7.8, 150 mM NaCl, 10 mM MgCl2, 0.05% Tween-20, 5% methanol) was incubated with RpfC liposomes (1:1, v/v) for 10 minutes. The sample was loaded into the NT.Label Free standard capillaries and measured with 20% LED power and 40% MST power. Purified sensor protein was dissolved in reaction buffer (50 mM Tris-HCl pH 8.5, 150 mM NaCl, 0.1% Tween-20) to a final concentration as 8 μM. Dilute DSF from 0.0122 μM to 25 μM in buffer (50 mM Tris-HCl pH 8.5, 150 mM NaCl, 0.25‰ methanol). Different concentrations of DSF and sensor protein (1:1, v/v) were mixed and loaded into NT.Label Free standard capillaries. […]
(§3) Supplementary file ppat.1006304.s004.pdf: S4 Fig Substitution of essential amino acid impact DSF-RpfC interaction. Microscale thermophoresis (MST) was used to quantify the binding affinity between DSF and RpfC derivates. […]

[5] = biological target: T3, soluble RpfC protein without input region (RpfC^Δinput) (Xanthomonas campestris pv. campestris, UniProt P0C0F7); test: MST binding, soluble RpfC^Δinput; conditions: RpfC^Δinput 0.1 μM
T3 construct: a truncated, soluble RpfC protein (RpfC^Δinput) lacking the N-terminal input region (including sensor and TM domains) was obtained and purified; His6 (C); made in house; host or cells: E. coli BL21(DE3), pET30a

[6] = biological target: T4, RpfC^FL IMV (Xanthomonas campestris pv. campestris, UniProt P0C0F7); test: In vitro autokinase assay, RpfC^FL inverted membrane vesicles; format: biochemical; conditions: 10 μM DSF
T4 construct: His6 (C); made in house; host or cells: E. coli BL21(DE3), pET30a
Method: as §1

[7] = biological target: T5, RpfC^FL liposome (Xanthomonas campestris pv. campestris, UniProt P0C0F7); test: In vitro autokinase (phosphorylation) assay, RpfC^FL liposome; format: biochemical; conditions: 10 μM DSF
T5 construct: His6 (C); made in house; host or cells: E. coli BL21(DE3), pET30a
Method: as §1

[8] = biological target: T6, RpfC^R15A liposome (Xanthomonas campestris pv. campestris, UniProt P0C0F7, R15A); test: MST binding, RpfC^R15A liposome
T6 construct: His6 (C); made in house; host or cells: E. coli BL21(DE3), pET30a
Method: as §2, §3

[9] = biological target: T7, RpfC^S3A liposome (Xanthomonas campestris pv. campestris, UniProt P0C0F7, S3A); test: Autokinase assay, RpfC^S3A liposome; format: biochemical; conditions: 0.75 μM DSF, 5 min
T7 construct: His6 (C); made in house; host or cells: E. coli BL21(DE3), pET30a
Method: as §1

[10] = biological target: T8, RpfC^D17A liposome (Xanthomonas campestris pv. campestris, UniProt P0C0F7, D17A); test: MST binding, RpfC^D17A liposome
T8 construct: His6 (C); made in house; host or cells: E. coli BL21(DE3), pET30a
Method: as §2, §3

[11] = biological target: T9, RpfC^E19A liposome (Xanthomonas campestris pv. campestris, UniProt P0C0F7, E19A); test: MST binding, RpfC^E19A liposome
T9 construct: His6 (C); made in house; host or cells: E. coli BL21(DE3), pET30a
Method: as §2, §3

[12] = biological target: T7, RpfC^S3A liposome; test: MST binding, RpfC^S3A liposome
Method: as §2, §3

[13] = biological target: T5, RpfC^FL liposome; test: Thermal shift assay (differential scanning fluorimetry), RpfC^FL liposome; format: binding
Method: (§4) DSF was mixed with purified proteins or liposomes of RpfC to a final concentration of 0 μM, 5 μM or 10 μM respectively in the reaction buffer (50 mM Tris-HCl pH 7.8, 25 mM NaCl, 100 mM KCl). The protein concentration was 0.5–1 μg/μl. The TSA was performed by a Prometheus NT.48 nanoDSF device with a temperature gradient of 20–95°C, 1°C /min. Unfolding transition points were determined according to the changes of intrinsic tryptophan fluorescence at 330 nm, 350 nm. The ratio of fluorescence and the melting temperature (Tm) were calculated by the NT Melting Control software (NanoTemper Technologies).

[14] = biological target: T2, RpfC^Q22A liposome; test: Autokinase assay, RpfC^Q22A liposome; format: biochemical; conditions: 0.75 μM DSF, 5 min
Method: as §1

[15] = biological target: T10, RpfC^Δsensor liposome (Xanthomonas campestris pv. campestris, UniProt P0C0F7); test: MST binding, RpfC^Δsensor liposome
T10 construct: His6 (C); made in house; host or cells: E. coli BL21(DE3), pET30a
Method: (§5) Binding reactions of RpfC to DSF was measured by microscale thermophoresis in a Monolith NT.Label Free (Nano Temper Technologies GMBH, Germany) instrument which detects changes in size, charge and conformation induced by binding. RpfC liposomes were collected with centrifugation of 200,000 g for 40 min and resuspended in MST buffer (50 mM Tris-HCl pH 7.8, 150 mM NaCl, 10 mM MgCl2, 0.05% Tween-20) to an approximate concentration of 0.1 μM. A range of concentration of DSF (range from 0.06 μM to 2 mM) in assay buffer (50 mM Tris-HCl pH 7.8, 150 mM NaCl, 10 mM MgCl2, 0.05% Tween-20, 5% methanol) was incubated with RpfC liposomes (1:1, v/v) for 10 minutes. The sample was loaded into the NT.Label Free standard capillaries and measured with 20% LED power and 40% MST power. Purified sensor protein was dissolved in reaction buffer (50 mM Tris-HCl pH 8.5, 150 mM NaCl, 0.1% Tween-20) to a final concentration as 8 μM. Dilute DSF from 0.0122 μM to 25 μM in buffer (50 mM Tris-HCl pH 8.5, 150 mM NaCl, 0.25‰ methanol). Different concentrations of DSF and sensor protein (1:1, v/v) were mixed and loaded into NT.Label Free standard capillaries. The label free MST assay was performed with 20% LED power and 40% MST power. KD Fit function of the Nano Temper Analysis Software Version 1.5.41 was used to fit curve and calculate the value of dissociation constant (Kd).

[16] = biological target: T11, RpfC^S18A liposome (Xanthomonas campestris pv. campestris, UniProt P0C0F7, S18A); test: MST binding, RpfC^S18A liposome
T11 construct: His6 (C); made in house; host or cells: E. coli BL21(DE3), pET30a
Method: as §2, §3

[17] = biological target: T12, RpfC^S18T liposome (Xanthomonas campestris pv. campestris, UniProt P0C0F7, S18T); test: Autokinase assay, RpfC^S18T liposome; format: biochemical; conditions: 0.75 μM DSF, 5 min; increase slightly lower than WT RpfC
T12 construct: His6 (C); made in house; host or cells: E. coli BL21(DE3), pET30a
Method: as §1

[18] = biological target: T10, RpfC^Δsensor liposome; test: Thermal shift assay, RpfC^Δsensor liposome; format: binding
Method: as §4

[19] = biological target: T13, RpfC sensor peptide (Xanthomonas campestris pv. campestris, UniProt P0C0F7); test: MST binding, purified RpfC sensor peptide; conditions: sensor peptide with GST tag removed, read-out: dissociation constant (Kd)
T13 construct: GST (N, cleaved yes); made in house; host or cells: E. coli BL21 (DE3), pGEX6P-1
Method: RpfC sensor fused with a GST tag was obtained and purified according to the GST Gene Fusion System Handbook (Amersham Biosciences) with GST Resin (TRANS). In order to acquire sensor peptide with GST tag cleaved off, on-column cleavage procedure was conducted. In brief, lysate of recombinant E.coli BL21 (DE3) strain was mixed with pre-equilibrated GST Resin with PBS buffer for ten minutes before loading into column. The column was washed by PBS buffer and resuspened with PreScission buffer (50 mM Tris-HCl, pH 8.5, 150 mM NaCl). Following the injection of 2 units PreScission Protease (GenScript), the column was sealed and placed on a rotator at 4°C. After 10 h of digestion, the flow fractions were collected, which contains preliminary sensor peptide with the GST tag being moved. If necessary, the sensor peptide was purified again by the GST Resin to get rid of uncleaved sensor-GST fusion protein. […]
Binding reactions of RpfC to DSF was measured by microscale thermophoresis in a Monolith NT.Label Free (Nano Temper Technologies GMBH, Germany) instrument which detects changes in size, charge and conformation induced by binding. […] The sample was loaded into the NT.Label Free standard capillaries and measured with 20% LED power and 40% MST power. […]

[20] = biological target: T5, RpfC^FL liposome; test: Microscale thermophoresis (MST) binding, RpfC^FL liposome; conditions: RpfC liposome 0.1 μM, read-out: dissociation constant (Kd)
Method: as §5

[21] = biological target: T13, RpfC sensor peptide; test: Circular dichroism of RpfC sensor peptide; conditions: sensor 60 μM; DSF 0, 100, 500 μM
Method: To determine if DSF has impact on RpfC sensor conformation change, CD analysis was carried out on a Chirascan CD Spectrometer (Applied Photophysics, UK), with 10 mm pathlength and 1 nm bandwidth. Sensor protein with GST tag cleaved off was dissolved in buffer (50 mM Tris-HCl pH 8.5, 150 mM NaCl) to 60 μM. Dilute DSF with Sensor protein to a series of concentration (0 μM, 100 μM and 500 μM). CD wavelength scans were collected between 200 nm-260 nm. The spectra data were analyzed on the http://dichroweb.cryst.bbk.ac.uk website with Contin-LL method.

[22] = biological target: T14, soluble RpfC^Δinput (Xanthomonas campestris pv. campestris, UniProt P0C0F7); test: Thermal shift assay, soluble RpfC^Δinput; format: binding
T14 construct: a truncated, soluble RpfC protein (RpfC^Δinput) lacking the N-terminal input region (including sensor and TM domains) was obtained and purified; His6 (C); made in house; host or cells: E. coli BL21(DE3), pET30a
Method: as §4

[23] = biological target: RpfS; set-up: method as in PMID 24617591, PMID 23815566; conditions: by ITC; read-out: binding affinity (Kd) DSF-RpfS; cited from earlier work
[24] = biological target: T5, RpfC^FL liposome; test: Limited proteolysis of RpfC^FL liposome; conditions: with AMP-PNP, vs DSF minus control
Method: The limited proteolysis experiments were performed at 0°C with 1.4 μg RpfC liposomes in a reaction buffer containing 50 mM Tris-HCl, pH 8.0, 100 mM NaCl, 2 mM DTT and 1.13 mM AMP-PNP. Trypsin was added to a final concentration of 0.018 μg μl^-1 to degrade RpfC liposome. Aliquot was removed at indicated time and the reaction was stopped by 5 × SDS loading buffer (250 mM Tris-HCl pH 6.8, 10% (w/v) SDS, 0.5% (w/v) bromophenol blue, 50% (v/v) glycerol, 25 mM PMSF). Samples were separated by 12% SDS-PAGE gel and protein bands were detected by silver staining. The sequence of the different peptide fragments were determined by a nanoLC-MS/MS with Orbitrap Fusion system (Thermo scientific, USA).

CC(C)CCCCCCC/C=C\C(=O)O [DSF, cis-11-methyl-dodecenoic acid]
DSF concentration at which RpfC^FL-P levels tapered off (saturation) [1]: ~20 µM
DSF concentration sufficient to elicit a detectable increase in RpfC^FL-P level [1]: 0.5 µM
impact on secondary structure [2]: did not have recognizable impact
minimal bioactive concentration of DSF required for eliciting cell-cell communication [3]: approximately 0.5 μM
binding between DSF and RpfC liposome [4]: completely eliminated the binding
binding to DSF [5]: didn’t bind
level of RpfC^FL-P phosphorylation compared with the control [6]: approximately doubled
time of increase in phosphorylation level post DSF addition [6]: 30 s
level of RpfC^FL-P phosphorylation compared with the control [7]: approximately doubled
time of increase in phosphorylation level post DSF addition [7]: 2 min
binding between DSF and RpfC liposome [8]: completely eliminated the binding
RpfC-P level under DSF stimulation [9]: remarkably increased
binding between DSF and RpfC liposome [10]: completely eliminated the binding
binding between DSF and RpfC liposome [11]: completely eliminated the binding
Kd ([12]; MST): 613 ± 340 nM
increase of binding affinity compared with WT RpfC ([12]; S3A replacement): approximately 20%
melting temperature (Tm) ([13]; 5 μM DSF vs. 10 μM RpfC): 64.27 °C
melting temperature (Tm) ([13]; 10 μM DSF vs. 10 μM RpfC): 66.27 °C
RpfC-P levels under DSF treatment [14]: significant decrease
binding to DSF [15]: didn’t bind
binding between DSF and RpfC liposome [16]: completely eliminated the binding
autophosphorylation level under DSF stimulation [17]: increased
thermal shift after DSF stimulation [18]: no thermal shift was detected
Kd [19]: 140 ± 40 nM
Kd [20]: 820 ± 120 nM
ratio of strand in secondary structure [21]: gradually elevated
thermal shift after DSF stimulation [22]: no thermal shift was detected
Kd [23]: 1400 nM
DHp-CA fragment (30 kDa) after trypsin limited proteolysis [24]: large accumulation
